Source: US8048881B2, “Pyrimidine derivatives and their use as P2Y12 receptor antagonists” (Actelion Pharmaceuticals Ltd., priority 2005, dated 2011)
Counter-ions that a name gives are not always drawn.

Molecular target: T1, human P2Y12 receptor (Homo sapiens, UniProt Q9H244)
T1 construct: expressed in transfected cells; host or cells: Chinese Hamster Ovary (CHO) cells
Assay: P2Y12 receptor binding assay
Settings: CHO cells with recombinant expression of the human P2Y12 receptor; tritium-labeled 2-methyl-S-ADP; incubation at room temperature for 2 hours
Method: P2Y12 Receptor Binding Assay
Chinese Hamster Ovary (CHO) cells with recombinant expression of the human P2Y12 receptor were cultured in 24 well cell-culture plates. Cells were washed three times with binding buffer (50 mM Tris pH 7.4, 100 mM NaCl, 1 mM EDTA, 0.5% BSA). The cells were then incubated with 0.5 ml per well binding buffer containing tritium-labeled 2-methyl-thio-adenosine 5′-diphosphate (2-methyl-S-ADP) (between 100'000 and 300'000 dpm per well) and various concentrations of test compounds. After incubation at room temperature for 2 hours, cells were washed three times with binding buffer. Then, cells were solubilized by addition of 0.5 ml solubilization buffer (SDS, NaOH, EDTA). The content of each well was then transferred into beta-counter vials and 2.0 ml of Ultima Gold Scintillation liquid was added.

T1 sequence (Q9H244 whole entry): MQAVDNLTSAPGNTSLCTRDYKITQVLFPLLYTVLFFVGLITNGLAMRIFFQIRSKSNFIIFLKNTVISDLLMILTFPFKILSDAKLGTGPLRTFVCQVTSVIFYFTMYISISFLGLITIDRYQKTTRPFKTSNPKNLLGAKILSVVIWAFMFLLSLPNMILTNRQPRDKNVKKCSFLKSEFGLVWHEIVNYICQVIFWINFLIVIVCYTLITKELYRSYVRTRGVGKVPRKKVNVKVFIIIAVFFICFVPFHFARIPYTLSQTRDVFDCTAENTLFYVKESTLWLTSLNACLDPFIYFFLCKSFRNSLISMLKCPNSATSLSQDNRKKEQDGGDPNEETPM

CCOC(=O)N1CCN(C(=O)[C@H](CCC(=O)O)NC(=O)c2cc(N(C)C)nc(-c3ccccc3)n2)CC1 [Example 79, 4-{(S)-4-carboxy-2-[(6-dimethylamino-2-phenyl-pyrimidine-4-carbonyl)-amino]-butyryl}-piperazine-1-carboxylic acid ethyl ester triflate salt]
IC50: 0.121 µM

CCCCc1cc(C(=O)N[C@@H](CCC(=O)O)C(=O)N2CCN(C(=O)OCC)CC2)nc(-c2ccccc2)n1 [Example 88, 4-{(S)-2-[(6-butyl-2-phenyl-pyrimidine-4-carbonyl)-amino]-4-carboxy-butyryl}-piperazine-1-carboxylic acid ethyl ester]
IC50: 0.098 µM

CCOC(=O)N1CCN(C(=O)[C@H](CCC(=O)O)NC(=O)c2cc(-c3cccc(C)c3)nc(-c3ccccc3)n2)CC1 [Example 94, 4-{(S)-4-carboxy-2-[(2-phenyl-6-m-tolyl-pyrimidine-4-carbonyl)-amino]-butyryl}-piperazine-1-carboxylic acid ethyl ester]
IC50: 0.2 µM

CCOC(=O)N1CCN(C(=O)[C@H](CCC(=O)O)NC(=O)c2cc(C)nc(-c3cccc(C)c3)n2)CC1 [Example 105, 4-{(S)-4-carboxy-2-[(6-methyl-2-m-tolyl-pyrimidine-4-carbonyl)-amino]-butyryl}-piperazine-1-carboxylic acid ethyl ester]
IC50: 0.94 µM

CCOC(=O)N1CCN(C(=O)[C@H](Cc2ccc(C(=O)O)cc2)NC(=O)c2cc(NC(C)C)nc(-c3ccccc3)n2)CC1 [Example 115, 4-{(S)-3-(4-carboxy-phenyl)-2-[(6-isopropylamino-2-phenyl-pyrimidine-4-carbonyl)-amino]-propionyl}-piperazine-1-carboxylic acid ethyl ester]
IC50: 0.39 µM

CCOC(=O)N1CCN(C(=O)[C@H](CCCC(=O)O)NC(=O)c2cc(-c3ccccc3)nc(-c3ccccc3)n2)CC1 [Example 121, 4-{(S)-5-carboxy-2-[(2,6-diphenyl-pyrimidine-4-carbonyl)-amino]-pentanoyl}-piperazine-1-carboxylic acid ethyl ester]
IC50: 0.127 µM

CCOC(=O)N1CCN(C(=O)[C@H](CCC(=O)OC(C)(C)C)NC(=O)c2cc(OCC(=O)O)nc(-c3ccccc3)n2)CC1 [Example 132, 4-{(S)-4-tert-butoxycarbonyl-2-[(6-carboxymethoxy-2-phenyl-pyrimidine-4-carbonyl)-amino]-butyryl}-piperazine-1-carboxylic acid ethyl ester]
IC50: 8.11 µM

CCOC(=O)N1CCN(C(=O)[C@H](CCC(=O)O)NC(=O)c2cc(NC(C)COC)nc(-c3ccccc3)n2)CC1 (stereo partly drawn) [Example 223, 4-((S)-4-carboxy-2-{[6-(2-methoxy-1-methyl-ethylamino)-2-phenyl-pyrimidine-4-carbonyl]-amino}-butyryl)-piperazine-1-carboxylic acid ethyl ester formate salt]
IC50: 0.097 µM

CCOC(=O)N1CCN(C(=O)[C@H](CCC(=O)O)NC(=O)c2cc(N3CCOCC3)nc(-c3ccccc3)n2)CC1 [Example 225, 4-{(S)-4-carboxy-2-[(6-morpholin-4-yl-2-phenyl-pyrimidine-4-carbonyl)-amino]-butyryl}-piperazine-1-carboxylic acid ethyl ester formate salt]
IC50: 0.1 µM

CCOC(=O)N1CCN(C(=O)[C@H](CCC(=O)O)NC(=O)c2cc(NCC(C)O)nc(-c3ccccc3)n2)CC1 (stereo partly drawn) [Example 231, 4-((S)-4-carboxy-2-{[6-(2-hydroxy-propylamino)-2-phenyl-pyrimidine-4-carbonyl]-amino}-butyryl)-piperazine-1-carboxylic acid ethyl ester]
IC50: 0.174 µM

CCOC(=O)N1CCN(C(=O)[C@H](CCC(=O)O)NC(=O)c2cc(N[C@H]3CC[C@H](O)CC3)nc(-c3ccccc3)n2)CC1 [Example 243, 4-((S)-4-carboxy-2-{[6-(trans-4-hydroxy-cyclohexylamino)-2-phenyl-pyrimidine-4-carbonyl]-amino}-butyryl)-piperazine-1-carboxylic acid ethyl ester]
IC50: 0.223 µM

CCCSc1cc(C(=O)N[C@@H](CCC(=O)O)C(=O)N2CCN(C(=O)OCC)CC2)nc(-c2ccccc2)n1 [Example 247, 4-{(S)-4-carboxy-2-[(2-phenyl-6-propylsulfanyl-pyrimidine-4-carbonyl)-amino]-butyryl}-piperazine-1-carboxylic acid ethyl ester]
IC50: 0.142 µM

CCOC(=O)N1CCN(C(=O)[C@H](CCC(=O)O)NC(=O)c2cc(SC3CCCC3)nc(-c3ccccc3)n2)CC1 [Example 249, 4-{(S)-4-carboxy-2-[(6-cyclopentylsulfanyl-2-phenyl-pyrimidine-4-carbonyl)-amino]-butyryl}-piperazine-1-carboxylic acid ethyl ester]
IC50: 0.101 µM

CCOC(=O)N1CCN(C(=O)[C@H](CCC(=O)O)NC(=O)c2cc(SC3CCCCC3)nc(-c3ccccc3)n2)CC1 [Example 251, 4-{(S)-4-carboxy-2-[(6-cyclohexylsulfanyl-2-phenyl-pyrimidine-4-carbonyl)-amino]-butyryl}-piperazine-1-carboxylic acid ethyl ester]
IC50: 0.624 µM

C#Cc1cc(C(=O)N[C@@H](CCC(=O)O)C(=O)N2CCN(C(=O)OCC)CC2)nc(-c2ccccc2)n1 [Example 258, 4-{(S)-4-carboxy-2-[(6-ethynyl-2-phenyl-pyrimidine-4-carbonyl)-amino]-butyryl}-piperazine-1-carboxylic acid ethyl ester]
IC50: 0.253 µM

CCOC(=O)N1CCN(C(=O)[C@H](CCC(=O)O)NC(=O)c2cc(C#CC(O)CC)nc(-c3ccccc3)n2)CC1 (stereo partly drawn) [Example 261, 4-((S)-4-carboxy-2-{[6-(3-hydroxy-pent-1-ynyl)-2-phenyl-pyrimidine-4-carbonyl]-amino}-butyryl)-piperazine-1-carboxylic acid ethyl ester]
IC50: 0.126 µM

CCOC(=O)N1CCN(C(=O)[C@H](CCC(=O)O)NC(=O)c2cc(CCC(C)(C)O)nc(-c3ccccc3)n2)CC1 [Example 266, 4-((S)-4-carboxy-2-{[6-(3-hydroxy-3-methyl-butyl)-2-phenyl-pyrimidine-4-carbonyl]-amino}-butyryl)-piperazine-1-carboxylic acid ethyl ester]
IC50: 0.273 µM

CCOC(=O)N1CCN(C(=O)[C@H](CCC(=O)O)NC(=O)c2cc(/C=C/C(C)O)nc(-c3ccccc3)n2)CC1 (stereo partly drawn) [Example 267, 4-((S)-4-carboxy-2-{[6-((E)-3-hydroxy-but-1-enyl)-2-phenyl-pyrimidine-4-carbonyl]-amino}-butyryl)-piperazine-1-carboxylic acid ethyl ester]
IC50: 0.216 µM

CCOC(=O)N1CCN(C(=O)[C@H](CCC(=O)O)NC(=O)c2cc(N3CCC[C@@H]3COC)nc(-c3ccccc3)n2)CC1 [Example 324, 4-((S)-4-carboxy-2-{[6-((R)-2-methoxymethyl-pyrrolidin-1-yl)-2-phenyl-pyrimidine-4-carbonyl]-amino}-butyryl)-piperazine-1-carboxylic acid ethyl ester formate salt]
IC50: 0.061 µM

CCOC(=O)N1CCN(C(=O)[C@H](CCC(=O)O)NC(=O)c2cc(N)nc(-c3ccccc3)n2)CC1 [Example 333, 4-{(S)-2-[(6-amino-2-phenyl-pyrimidine-4-carbonyl)-amino]-4-carboxy-butyryl}-piperazine-1-carboxylic acid ethyl ester triflate salt]
IC50: 0.161 µM

CCCC(CCC)C(=O)Nc1cc(C(=O)N[C@@H](CCC(=O)O)C(=O)N2CCN(C(=O)OCC)CC2)nc(-c2ccccc2)n1 [Example 341, 4-((S)-4-carboxy-2-{[2-phenyl-6-(2-propyl-pentanoylamino)-pyrimidine-4-carbonyl]-amino}-butyryl)-piperazine-1-carboxylic acid ethyl ester]
IC50: 0.169 µM

CCOC(=O)N1CCN(C(=O)[C@H](CCC(=O)O)NC(=O)c2cc(CN(C)Cc3ccccc3)nc(-c3ccccc3)n2)CC1 [Example 362, 4-[(S)-2-({6-[(benzyl-methyl-amino)-methyl]-2-phenyl-pyrimidine-4-carbonyl}-amino)-4-carboxy-butyryl]-piperazine-1-carboxylic acid ethyl ester]
IC50: 0.086 µM

CCOC(=O)N1CCN(C(=O)[C@H](CCC(=O)O)NC(=O)c2cc(CS(=O)(=O)CC)nc(-c3ccccc3)n2)CC1 [Example 375, 4-{(S)-4-carboxy-2-[(6-ethanesulfonylmethyl-2-phenyl-pyrimidine-4-carbonyl)-amino]-butyryl}-piperazine-1-carboxylic acid ethyl ester]
IC50: 0.108 µM

CCOC(=O)N1CCN(C(=O)[C@H](CCC(=O)O)NC(=O)c2cc(CSC3CCCC3)nc(-c3ccccc3)n2)CC1 [Example 378, 4-{(S)-4-carboxy-2-[(6-cyclopentylsulfanylmethyl-2-phenyl-pyrimidine-4-carbonyl)-amino]-butyryl}-piperazine-1-carboxylic acid ethyl ester]
IC50: 0.157 µM

CCOC(=O)N1CCN(C(=O)[C@H](CCC(=O)O)NC(=O)c2cc(-c3cn[nH]c3)nc(-c3ccccc3)n2)CC1 [Example 396, 4-((S)-4-carboxy-2-{[2-phenyl-6-(1H-pyrazol-4-yl)-pyrimidine-4-carbonyl]-amino}-butyryl)-piperazine-1-carboxylic acid ethyl ester]
IC50: 0.073 µM

CCOC(=O)N1CCN(C(=O)[C@H](CCC(=O)O)NC(=O)c2cc(C(C)=O)nc(-c3ccccc3)n2)CC1 [Example 402, 4-{(S)-2-[(6-acetyl-2-phenyl-pyrimidine-4-carbonyl)-amino]-4-carboxy-butyryl}-piperazine-1-carboxylic acid ethyl ester]
IC50: 0.072 µM
